Like-named read-outs stand apart in the source and are kept apart here. Marks after values point to notes of the source that are not given here.
Columns and labels:
[1] = Measurement of log P values by HPLC on reversed phase columns (EEC directive 79/831 Annex V.A8); conditions: for chromatographic logP: pH 2.7; for LogP: Table 1, compounds of formula (I), method [a]: LC-MS at pH 2.7, 0.1% formic acid in water / acetonitrile gradient
Plasmopara viticola = assay: Plasmopara test (grapevines) / preventive; assay type: in vivo; conditions: grapevine plants, preventive spray, 10 ppm of active ingredient, evaluated 6 days after inoculation
Description: Solvent: 24.5 parts by weight of acetone • 24.5 parts by weight of dimethylacetamide
Emulsifier: 1 part by weight of alkylaryl polyglycol ether
To produce a suitable preparation of active compound, 1 part by weight of active compound is mixed with the stated amounts of solvent and emulsifier, and the concentrate is diluted with water to the desired concentration.
To test for preventive activity, young plants are sprayed with the preparation of active compound at the stated rate of application. After the spray coating has dried on, the plants are inoculated with an aqueous spore suspension of Plasmopara viticola and then remain for 1 day in an incubation cabinet at approximately 20° C. and a relative atmospheric humidity of 100%. The plant is subsequently placed for 4 days in a greenhouse at approximately 21° C. and a relative atmospheric humidity of approximately 90%. The plants are then misted and placed for 1 day in an incubation cabinet.
The test is evaluated 6 days after the inoculation. 0% means an efficacy which corresponds to that of the untreated control, while an efficacy of 100% means that no disease is observed.

[2] = pH 2.7
Phytophthora infestans = assay type: in vivo; conditions: tomato plants, preventive spray, 500 ppm of active ingredient, evaluated 5 days after inoculation
Puccinia recondita = assay: In vivo preventive test on Puccinia recondita (brown rust on wheat); conditions: wheat plants, preventive spray, 500 ppm of active ingredient, evaluated 11 days after inoculation
Description: (§1) The tested active ingredients are prepared by homogenization in a mixture of acetone/Dimethyl sulfoxide/Tween®, and then diluted with water to obtain the desired active material concentration.
(§2) The young plants of wheat are treated by spraying the active ingredient prepared as described above. Control plants are treated only with an aqueous solution of acetone/Dimethyl sulfoxide/Tween®.
After 24 hours, the plants are contaminated by spraying the leaves with an aqueous suspension of Puccinia recondita spores. The contaminated wheat plants are incubated for 24 hours at 20° C. and at 100% relative humidity and then for 10 days at 20° C. and at 70-80% relative humidity.
(§3) The test is evaluated 11 days after the inoculation. 0% means an efficacy which corresponds to that of the control plants while an efficacy of 100% means that no disease is observed.

Uromyces appendiculatus = assay: In vivo preventive test on Uromyces appendiculatus (bean rust); conditions: bean plants, preventive spray, 500 ppm of active ingredient, evaluated 11 days after inoculation
Description: as §1
The young plants of bean are treated by spraying the active ingredient prepared as described above. Control plants are treated only with an aqueous solution of acetone/Dimethyl sulfoxide/Tween®.
After 24 hours, the plants are contaminated by spraying the leaves with an aqueous suspension of Uromyces appendiculatus spores. The contaminated bean plants are incubated for 24 hours at 20° C. and at 100% relative humidity and then for 10 days at 20° C. and at 70-80% relative humidity.
as §3

Pyricularia oryzae = assay type: in vivo; conditions: rice plants, preventive spray, 500 ppm of active ingredient, evaluated 6 days after inoculation
Septoria tritici = assay: In vivo preventive test on Septoria tritici (leaf spot on wheat); conditions: wheat plants, preventive spray, 500 ppm of active ingredient, evaluated 24 days after inoculation
Description: as §1, §2
After 24 hours, the plants are contaminated by spraying the leaves with an aqueous suspension of Septoria tritici spores. The contaminated wheat plants are incubated for 72 hours at 18° C. and at 100% relative humidity and then for 21 days at 20° C. and at 90% relative humidity.
The test is evaluated 24 days after the inoculation. 0% means an efficacy which corresponds to that of the control plants while an efficacy of 100% means that no disease is observed.

Pyrenophora teres = assay: In vivo preventive test on Pyrenophora teres (net blotch on barley); conditions: barley plants, preventive spray, 500 ppm of active ingredient, evaluated 14 days after inoculation
Description: as §1
The young plants of barley are treated by spraying the active ingredient prepared as described above. Control plants are treated only with an aqueous solution of acetone/Dimethyl sulfoxide/Tween®.
After 24 hours, the plants are contaminated by spraying the leaves with an aqueous suspension of Pyrenophora teres spores. The contaminated barley plants are incubated for 48 hours at 20° C. and at 100% relative humidity and then for 12 days at 20° C. and at 70-80% relative humidity.
The test is evaluated 14 days after the inoculation. 0% means an efficacy which corresponds to that of the control plants while an efficacy of 100% means that no disease is observed.

Alternaria brassicae = assay: In vivo preventive test on Alternaria brassicae (leaf spot on radish); conditions: radish plants, preventive spray, 500 ppm of active ingredient, evaluated 6 days after inoculation
Description: as §1
The young plants of radish are treated by spraying the active ingredient prepared as described above. Control plants are treated only with an aqueous solution of acetone/Dimethyl sulfoxide/Tween®.
After 24 hours, the plants are contaminated by spraying the leaves with an aqueous suspension of Alternaria brassicae spores. The contaminated radish plants are incubated for 6 days at 20° C. and at 100% relative humidity.
The test is evaluated 6 days after the inoculation. 0% means an efficacy which corresponds to that of the control plants while an efficacy of 100% means that no disease is observed.

Compound | chromatographic logP [1] | LogP [2] | % efficacy (Phytophthora infestans) [%] | also measured
CC(C)(C)OC(=O)Nc1cccc(CON=C(C(N)=NO)c2cccnc2)n1 [Example V-03, tert-butyl {6-[({[2-amino-2-(hydroxyimino)-1-(pyridin-3-yl)ethylidene]amino}oxy)methyl]pyridin-2-yl}carbamate] | 1.81 | – | – | –
CN(O)C(=N)/C(=N\OCc1cccc(NC(=O)OC(C)(C)C)n1)c1ccccn1 [Example VI-01, tert-butyl (6-{[({(1Z)-2-[hydroxy(methyl)amino]-2-imino-1-(pyridin-2-yl)ethylidene}amino)oxy]methyl}pyridin-2-yl)carbamate] | 1.54 | – | – | –
Cn1c(C(=NOCc2csc(NC(=O)C3CCc4ccccc4O3)n2)c2ccsc2)noc1=O (stereo not drawn) [Example 69] | – | 3.62^[a] | 75 | % efficacy (Plasmopara viticola): 92%
Cn1oc(=O)nc1/C(=N\OCc1cccc(N)n1)c1ccccn1 [Example 9, 3-[(Z)-{[(6-aminopyridin-2-yl)methoxy]imino}(pyridine-2-yl)methyl]-2-methyl-1,2,4-oxadiazol-5(2H)-one] | 0.41 | – | – | –
CC(C)(C)OC(=O)Nc1cccc(CON=C(C#N)c2cccnc2)n1 [Example IV-07, tert-butyl {6-[({[cyano(pyridin-3-yl)methylene]amino}oxy)methyl]pyridin-2-yl}carbamate] | 3.19 | – | – | –
CC(C)(C)OC(=O)Nc1cccc(CO/N=C(\C#N)c2ccccn2)n1 [Example IV-02, tert-butyl {6-[({[(Z)-cyano(pyridin-2-yl)methylene]amino}oxy)methyl]pyridin-2-yl}carbamate] | 3.5 | – | – | –
CCCCCOC(=O)Nc1cccc(CON=C(c2cccnc2)c2nc(=O)on2C)n1 [Example 55] | – | 2.84^[a] | 92 | –
C#CCCOC(=O)Nc1cccc(CON=C(c2ccncc2)c2noc(=O)n2C)n1 [Example 45] | – | 2.21^[a] | 100 | % efficacy (Plasmopara viticola): 91%
CCCCCOC(=O)Nc1nc(CON=C(c2cccs2)c2noc(=O)n2C)cs1 [Example 74] | – | 3.79^[a] | 85 | –
Cn1c(C(=NOCc2cccc(NC(=O)OC(C)(C)C)n2)c2ccncc2)noc1=O [Example 38] | – | 2.75^[a] | 100 | –
Cn1oc(=O)nc1/C(=N\OCc1cccc(NC(=O)OC(C)(C)C)n1)c1ccccn1 [Example 22, tert-butyl {6-[({[(Z)-(2-methyl-5-oxo-2,5-dihydro-1,2,4-oxadiazol-3-yl)(pyridine-2-yl)methylene]amino}oxy)methyl]pyridin-2-yl}carbamate] | 2.68 | – | 99 | % efficacy (Puccinia recondita): 88%; % efficacy (Uromyces appendiculatus): 100%; % efficacy (Pyricularia oryzae): 75%
CCCCOC(=O)Nc1cccc(CON=C(c2ncccn2)c2noc(=O)n2C)n1 [Example 53] | – | 2.68^[a] | 85 | –
C#CCCOC(=O)Nc1cccc(CO/N=C(/c2ccccn2)c2nc(=O)on2C)n1 [Example 17, But-3-yn-1-yl {6-[({[(Z)-(2-methyl-5-oxo-2,5-dihydro-1,2,4-oxadiazol-3-yl)(pyridine-2-yl)methylene]amino}oxy)methyl]pyridin-2-yl}carbamate] | 2.1 | – | – | –
Cn1c(C(=NOCc2cccc(NC(=O)OC(C)(C)C)n2)c2ccccn2)noc1=O [Example 13] | – | 3.17^[a] | 98 | % efficacy (Septoria tritici): 75%; % efficacy (Pyrenophora teres): 77%; % efficacy (Alternaria brassicae): 91%
CCCCCOC(=O)Nc1cccc(CON=C(c2ncccn2)c2noc(=O)n2C)n1 [Example 52] | – | 3.06^[a] | 88 | –
CCCCCOC(=O)Nc1cccc(CON=C(c2ccccn2)c2nc(=O)on2C)n1 [Example 15] | – | 3.09^[a] | 88 | –
CCCCC(=O)Nc1cccc(CON=C(c2cccnc2)c2noc(=O)n2C)n1 [Example 59] | – | 2.51^[a] | 78 | –
CCCCOC(=O)Nc1cccc(CON=C(c2ccncc2)c2noc(=O)n2C)n1 [Example 82] | – | 2.80^[a] | 100 | –
CCCC(C)C(=O)Nc1nc(CON=C(c2ccsc2)c2noc(=O)n2C)cs1 (stereo not drawn) [Example 71] | – | 3.39^[a] | 100 | –
CCCCCC(=O)Nc1cccc(CON=C(c2ccccn2)c2noc(=O)n2C)n1 [Example 4] | – | 3.13^[a] | 88 | –
CC(C)(C)OC(=O)Nc1cccc(CON=C(c2cccnc2)c2noc(=O)[nH]2)n1 [Example 32, tert-butyl {6-[({[(5-oxo-4,5-dihydro-1,2,4-oxadiazol-3-yl)(pyridin-3-yl)methylene]amino}oxy)methyl]pyridin-2-yl}carbamate] | 2.59 | – | – | –
CCCCCOC(=O)Nc1cccc(CON=C(c2ccncc2)c2noc(=O)n2C)n1 [Example 44] | – | – | 98 | LogP [1]: 3.29^[a]
CC(Oc1ccccc1)C(=O)Nc1nc(CON=C(c2ccsc2)c2noc(=O)n2C)cs1 (racemic) [Example 43] | – | 3.37^[a] | 98 | –
CC(Oc1ccccc1)C(=O)Nc1nc(CON=C(c2cccs2)c2noc(=O)n2C)cs1 (stereo not drawn) [Example 80] | – | 3.42^[a] | 100 | % efficacy (Plasmopara viticola): 100%
Cn1c(C(=NOCc2cccc(NC(=O)OC(C)(C)C)n2)c2cccnc2)noc1=O [Example 33, tert-butyl {6-[({[(4-methyl-5-oxo-4,5-dihydro-1,2,4-oxadiazol-3-yl)(pyridin-3-yl)methylene]amino}oxy)methyl]pyridin-2-yl}carbamate] | 2.75 | – | 78 | –
Cn1c(C(=NOCc2csc(NC(=O)OC(C)(C)C)n2)c2ccsc2)noc1=O [Example 16] | – | 3.39^[a] | 100 | % efficacy (Plasmopara viticola): 99%
C#CCCOC(=O)Nc1cccc(CON=C(c2ccccn2)c2nc(=O)on2CC)n1 [Example 19] | – | – | – | LogP [1]: 2.35^[a]
Cn1c(C(=NOCc2csc(N)n2)c2ccsc2)noc1=O [Example 23] | – | – | 98 | LogP [1]: 1.35^[a]
CCCCOC(=O)Nc1cccc(CON=C(c2ccccn2)c2noc(=O)n2C)n1 [Example 3] | – | 3.25^[a] | 100 | –
